Source: US7923468B2, “1,4-benzothiepin-1,1-dioxide derivatives which are substituted with cyclohexyl groups, method for producing the same, drugs containing said compounds and use thereof” (Sanofi-Aventis Deutschland GmbH, priority 2006, dated 2011)
pIC50: −log10 of the molar value.

Target: T1, human IBAT (Homo sapiens, UniProt Q12908)
T1 construct: Bases 599 to 1645 correspond to the complete coding region of human IBAT; expressed in transfected cells
T1 sequence (Q12908 1-348): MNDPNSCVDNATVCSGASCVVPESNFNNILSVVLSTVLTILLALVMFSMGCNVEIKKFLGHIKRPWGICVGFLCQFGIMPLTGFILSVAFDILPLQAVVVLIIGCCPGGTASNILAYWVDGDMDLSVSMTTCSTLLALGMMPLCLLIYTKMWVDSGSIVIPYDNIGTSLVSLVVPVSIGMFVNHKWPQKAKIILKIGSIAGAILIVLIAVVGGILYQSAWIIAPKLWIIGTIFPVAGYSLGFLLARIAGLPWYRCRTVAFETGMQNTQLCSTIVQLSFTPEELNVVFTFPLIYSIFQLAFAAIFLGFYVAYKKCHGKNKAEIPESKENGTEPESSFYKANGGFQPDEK
Assay: In vitro IBAT inhibition assay: uptake of [3H]-taurocholic acid into CHO-hIBAT cells
Format: cell-based
Settings: taurocholic acid 10 μM, 60 min at room temperature, read-out: IC-50 (human IBAT)
Excerpt: Preparation and Procedure for the In Vitro IBAT Inhibition Assay:
• 1. Cloning of an Expression Vector for Human IBAT
The cDNA (complementary deoxyribonucleic acid) of human IBAT was cloned by standard methods of molecular biology as described for example in Molecular Cloning: A Laboratory Manual by Joseph Sambrook and David Russell, and introduced into the pcDNA1 vector from Invitrogen. […] Bases 599 to 1645 correspond to the complete coding region of human IBAT. • 2. Preparation of a Recombinant Cell Line with Constitutive Expression of Human IBAT
The expression vector for human IBAT was introduced by stable transfection into CHO (chinese hamster ovary) cells. […]
CHO-hIBAT cells were seeded in a concentration of 40 000 cells per well in poly-D-lysine-coated 96-well plates in cell culture medium and cultured for 24 h. […] Finally, 100 μl of scintillation fluid were added to each well, and the radioactivity taken up into the cells was determined in a MicroBeta Scintillation Microplate Reader from Wallac.
The half-maximum inhibitory effect of the test compound (IC50 value, inhibitory concentration 50) was determined in the following way: • 1. […] This is the measurement in the absence of substance, measured in sodium-containing transport assay buffer. • 2. […] This is the measurement in the absence of substance, measured in sodium-free transport assay buffer. • 3. […]

SMILES	pIC50
CCCC[C@]1(CC)CS(=O)(=O)c2ccc(N(C)C)cc2[C@@H](c2cccc(NC(=O)N[C@@H]3[C@@H](OS(=O)(=O)O)[C@H](OCc4ccccc4)[C@@H](OS(=O)(=O)O)[C@H](OCc4ccccc4)[C@H]3OS(=O)(=O)O)c2)[C@H]1O [Example 2]	7.80
CCCC[C@]1(CC)CS(=O)(=O)c2ccc(N(C)C)cc2[C@@H](c2cccc(NC(=O)N[C@@H]3[C@@H](O)[C@H](OCc4ccccc4)[C@@H](O)[C@H](OCc4ccccc4)[C@H]3O)c2)[C@H]1O [Example 1]	8.38
